Reference: patent US12295970B2, “Imidazoquinoline compounds and prodrugs thereof” (UNIVERSITY OF KANSAS, priority 2019, dated 2025)

Target: T1, hTLR7 (Homo sapiens, UniProt Q9NYK1)
T1 construct: host or cells: HEK293 (HEK-Blue hTLR7)
T1 sequence (Q9NYK1 27-1049): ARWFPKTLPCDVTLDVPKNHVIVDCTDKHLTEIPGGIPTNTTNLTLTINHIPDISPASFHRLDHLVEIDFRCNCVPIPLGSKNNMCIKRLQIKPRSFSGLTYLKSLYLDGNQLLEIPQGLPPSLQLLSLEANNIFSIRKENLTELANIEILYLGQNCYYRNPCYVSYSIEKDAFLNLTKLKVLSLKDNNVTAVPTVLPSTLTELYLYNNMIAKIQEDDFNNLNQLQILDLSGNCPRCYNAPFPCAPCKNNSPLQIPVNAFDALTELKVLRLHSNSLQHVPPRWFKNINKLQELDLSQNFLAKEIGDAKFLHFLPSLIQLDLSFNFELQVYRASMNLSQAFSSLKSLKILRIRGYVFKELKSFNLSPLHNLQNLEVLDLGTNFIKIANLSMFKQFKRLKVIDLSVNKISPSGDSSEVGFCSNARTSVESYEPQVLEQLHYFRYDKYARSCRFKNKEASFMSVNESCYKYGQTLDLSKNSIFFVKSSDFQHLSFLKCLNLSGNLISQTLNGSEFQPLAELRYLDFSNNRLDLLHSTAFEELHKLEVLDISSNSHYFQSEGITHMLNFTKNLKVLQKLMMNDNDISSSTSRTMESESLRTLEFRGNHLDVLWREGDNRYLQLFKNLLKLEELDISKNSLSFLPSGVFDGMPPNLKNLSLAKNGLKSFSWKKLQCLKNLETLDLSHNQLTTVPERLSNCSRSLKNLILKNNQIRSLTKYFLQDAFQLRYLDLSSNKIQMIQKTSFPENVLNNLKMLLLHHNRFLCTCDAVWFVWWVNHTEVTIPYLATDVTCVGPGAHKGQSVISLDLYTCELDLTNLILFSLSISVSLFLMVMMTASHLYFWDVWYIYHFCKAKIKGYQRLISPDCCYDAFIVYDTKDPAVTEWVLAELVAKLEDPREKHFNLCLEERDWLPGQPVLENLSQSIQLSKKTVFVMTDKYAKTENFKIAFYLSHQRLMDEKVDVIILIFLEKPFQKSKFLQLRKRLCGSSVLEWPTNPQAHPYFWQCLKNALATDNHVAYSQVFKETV
Experiment: SEAP reporter assay for hTLR-7 activity (HEK-Blue hTLR7 cells)
Assay type: cell-based
Experimental: TLR activation induces NF-κB production and subsequent SEAP secretion, which is measured using HEK-Detection media (InvivoGen) containing a colorimetric substrate for SEAP (UV-Vis, 637 nm).
The experiments followed manufacturer protocol as follows: SEAP levels were measured via absorbance at 637 nm using HEK-Blue Detection cell culture medium (InvivoGen), which contains a SEAP-specific colorimetric substrate. Compound stock solutions were first diluted in sterile DMSO at a concentration of 10 mM. Lower concentrations were prepared by serial dilution of the initial 10 mM stock samples into sterile DMSO and these solutions (22 μL) were subsequently diluted into sterile H2O (198 μL) using a BioTek Precision XS pipetting system. HEK-Blue hTLR7, HEK-Blue hTLR8, Null 1−k, and Null 1 cell suspensions in sterile HEK-Blue Detection medium were prepared at a density of 220,000 cells per mL. Clear bottom, 96-well tissue culture treated plates (Corning) were seeded with hTLR7 and Null 1−k or hTLR8 and Null 1 cell suspensions (180 μL/well), after which 20 μL of the various sample concentrations in 10% v/v DMSO/H2O were added (20 μL) in quadruplicate wells to yield the desired testing concentration in 1% v/v DMSO cell suspension. Plates were incubated at 37° C. and 5% CO2 in the dark. Absorbance measurements were taken at 637 nm at 12 hours, 4 replicates per concentration point, per cell line (hTLR7, hTLR8, Null 1−k, Null 1). Three independent measurements on different days were performed for each analog.
Corresponding well absorbance values for each concentration tested were averaged with respect to days tested, and the average relative NF-κB induction (UV-Vis, 637 nm) of the null cell lines (Null 1-k or Null 1) were subtracted from the respective average TLR expressing cell line (hTLR7 or hTLR8) absorbance averages. […] The three independent, normalized averages for each analog were then pooled, and the data was fit using the Hill-Slope model (GraphPad Prism v7.0) using the non-linear fit from the [Agonist] vs. response—Variable Slope (four parameters) with a hill slope constrained to less than 3.

CCOCc1nc2c(N)nc3ccccc3c2n1CC(C)(C)O [Compound 2, resiquimod, reference compound]
agonist for TLR7 receptor (in words): agonists
